Article PMC7997453 (Pharmaceuticals, 2021)
pKi: −log10 of the molar value. Read-outs that look alike come from different tables or passages of the source.

Tests used:
[1] = parameters: method as in PMID 25028625; conditions: cited from earlier work
[2] = biological target: T1, CYP3A4 (Homo sapiens, UniProt P08684); assay: Time-dependent inhibition (TDI) assay, testosterone-6β-hydroxylation, CYP3A5*3/*3 HLM; assay type: biochemical
Procedure: (§1) Testosterone-6β-hydroxylation was used to measure the activity of CYP3A4 and CYP3A5. […] With the corresponding double-reciprocal plot, the derived kinetic constants from the inactivation experiments were estimated.
(§2) Two-step incubation was performed to evaluate the TDI assay. […] After pre-incubation for 3 min at 37 °C in a shaking water bath, the enzymatic reaction was started upon adding NADPH (1 mM) with various pre-reaction time (0, 5, 10, 20, 30 min). For TDI on CYP3A5, NADPH (1 mM) was added to the incubation which contained CYP3A5*1/*3 HLM (0.5 mg/mL) and CYP3cide (1.2 μM) after being pre-warmed for 3 min. […] Next step, an aliquot (20 μL) of the primary pre-reaction mixture was transferred to 180 μL of the secondary incubation system which consisted of PBS (0.1 M), testosterone (200 μM) and NADPH (1 mM). The secondary reaction was incubated at 37 °C for 10 min and terminated by adding 400 μL ice-cold acetonitrile containing prednisolone as the internal standard (0.3150 μM for CYP3A5*3/*3 HLM incubation and 0.07875 μM for CYP3A5*1/*3 HLM incubation). […] The observed inactivation rate of the affected enzyme (kobs) was the negative slope of the linear regression. kinact and KI were calculated using Equation (1) by the double-reciprocal plot. I represents the concentration of the inhibitor. (1) kobs=kinact×I/[…]

[3] = biological target: T2, CYP3A5 (Homo sapiens, UniProt P20815); assay: Time-dependent inhibition (TDI) assay, testosterone-6β-hydroxylation, CYP3A5*1/*3 HLM with CYP3cide; assay type: biochemical
Procedure: as §1, §2

[4] = octanol/water partition coefficient; assay type: physicochemical; conditions: In-house data
[5] = intrinsic clearance in human liver microsomes; assay type: in vitro ADME; conditions: In-house data, read-out: CLint,HLM
[6] = test system: CYP3A; parameters: method as in PMID 15342469; conditions: cited from earlier work
[7] = cited from earlier work
[8] = test system: Caco-2 cell line; conditions: cited from earlier work; for Papp,caco-2,(pH 7.4:7.4): ref supplement 7
[9] = biological target: T1, CYP3A4; assay: Reversible inhibition (RI) assay on tacrolimus metabolism, CYP3A5*3/*3 HLM
Procedure: (§3) The reactions were started with the addition of nicotinamide adenine dinucleotide phosphate (NADPH, 1 mM) and stopped 10 min later upon adding a double volume of ice-cold methanol. […] Reactions were terminated with the same method as the CYP3A4 group. All incubations were carried out in triplicate. […] Dixon plots were used to analyze the inhibitory type of RI assay and Ki value.

[10] = biological target: T2, CYP3A5; assay: Reversible inhibition (RI) assay on tacrolimus metabolism, CYP3A5*1/*3 HLM with CYP3cide
Procedure: as §3

[11] = parameters: method as in PMID 12676880; conditions: cited from earlier work
[12] = cited from earlier work; remark: listed apart in the source
[13] = test system: CYP3A4; parameters: method as in earlier work; conditions: ref 3 (supplement ref 8), cited from earlier work; for Km: unbound Michaelis constant
[14] = test system: CYP3A5; conditions: cited from earlier work; for Km: unbound Michaelis constant
[15] = ref supplement 4; cited from earlier work
[16] = parameters: method as in supplement 6; conditions: ref supplement 6; cited from earlier work
[17] = parameters: method as in supplement 4; conditions: ref supplement 4; cited from earlier work
[18] = parameters: method as in supplement 5; conditions: ref supplement 5; cited from earlier work
[19] = 0.125 μM STA, 0.2 μM tacrolimus
[20] = 0.125 μM STA, 0.4 μM tacrolimus
[21] = 0.125 μM STA, 0.8 μM tacrolimus
[22] = 0.125 μM STA, 1.6 μM tacrolimus
[23] = single oral dose 1 mg, CYP3A5 expressers
[24] = single oral dose 1 mg, CYP3A5 non-expressers
[25] = single oral dose 2 mg, CYP3A5 expressers
[26] = single oral dose 2 mg, CYP3A5 non-expressers
[27] = single oral dose 5 mg, CYP3A5 expressers
[28] = single oral dose 5 mg, CYP3A5 non-expressers

T1 sequence (P08684 whole entry): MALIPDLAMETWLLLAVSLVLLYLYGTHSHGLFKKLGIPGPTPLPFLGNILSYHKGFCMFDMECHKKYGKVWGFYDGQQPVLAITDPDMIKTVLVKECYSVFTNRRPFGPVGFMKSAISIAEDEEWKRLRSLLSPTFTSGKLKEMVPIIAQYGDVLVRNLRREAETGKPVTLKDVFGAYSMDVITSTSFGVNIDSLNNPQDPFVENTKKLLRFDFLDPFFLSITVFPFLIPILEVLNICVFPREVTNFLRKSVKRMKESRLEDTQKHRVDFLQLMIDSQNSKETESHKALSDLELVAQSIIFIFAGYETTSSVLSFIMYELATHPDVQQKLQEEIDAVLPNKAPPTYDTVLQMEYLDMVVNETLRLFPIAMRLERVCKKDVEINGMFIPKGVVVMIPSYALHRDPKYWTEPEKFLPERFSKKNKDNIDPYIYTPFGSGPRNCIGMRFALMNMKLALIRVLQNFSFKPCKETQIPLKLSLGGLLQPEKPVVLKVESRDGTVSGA
T2 sequence (P20815 whole entry): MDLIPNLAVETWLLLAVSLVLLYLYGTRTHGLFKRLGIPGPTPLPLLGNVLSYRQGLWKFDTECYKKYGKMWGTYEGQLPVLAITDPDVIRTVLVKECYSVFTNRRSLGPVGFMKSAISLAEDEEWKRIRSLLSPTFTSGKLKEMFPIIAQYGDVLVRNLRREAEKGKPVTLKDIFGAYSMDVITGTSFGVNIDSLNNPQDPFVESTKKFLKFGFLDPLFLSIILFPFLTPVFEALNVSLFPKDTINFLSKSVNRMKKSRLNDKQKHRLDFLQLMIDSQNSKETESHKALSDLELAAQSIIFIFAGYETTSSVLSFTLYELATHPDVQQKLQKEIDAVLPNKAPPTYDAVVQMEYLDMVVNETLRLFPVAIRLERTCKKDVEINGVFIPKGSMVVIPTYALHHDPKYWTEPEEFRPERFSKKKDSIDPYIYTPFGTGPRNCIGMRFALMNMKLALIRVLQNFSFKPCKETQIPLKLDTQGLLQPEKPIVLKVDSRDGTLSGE

## Clc1ccccc1C(c1ccccc1)(c1ccccc1)n1ccnc1 [Clotrimazole]
[1]
  inhibition on tacrolimus metabolism, CYP3A5 non-expresser patients versus expressers: significantly greater inhibition

## COc1cc2c(c(OC)c1OC)-c1c(cc3c(c1OC)OCO3)CC(C)C(C)(O)C2OC(=O)c1ccccc1 (stereo not drawn) [STA, schisantherin A]
[2]
  TDI profile on CYP3A4 (in words): potent TDI
[2]; 0.25 μM STA, pre-incubation 0 min
  log of percentage of control activity, Figure 3A, Mean: 4.6010
[2]; 0.25 μM STA, pre-incubation 5 min
  log of percentage of control activity, Figure 3A, Mean: 4.4164
[2]; 0.25 μM STA, pre-incubation 10 min
  log of percentage of control activity, Figure 3A, Mean: 4.3386
[2]; 0.25 μM STA, pre-incubation 20 min
  log of percentage of control activity, Figure 3A, Mean: 4.2986
[2]; 0.25 μM STA, pre-incubation 30 min
  log of percentage of control activity, Figure 3A, Mean: 4.2407
[2]; 0.5 μM STA, pre-incubation 0 min
  log of percentage of control activity, Figure 3A, Mean: 4.6010
[2]; 0.5 μM STA, pre-incubation 5 min
  log of percentage of control activity, Figure 3A, Mean: 4.2393
[2]; 0.5 μM STA, pre-incubation 10 min
  log of percentage of control activity, Figure 3A, Mean: 4.0778
[2]; 0.5 μM STA, pre-incubation 20 min
  log of percentage of control activity, Figure 3A, Mean: 3.9359
[2]; 0.5 μM STA, pre-incubation 30 min
  log of percentage of control activity, Figure 3A, Mean: 3.9183
[2]; 1 μM STA, pre-incubation 0 min
  log of percentage of control activity, Figure 3A, Mean: 4.5902
[2]; 1 μM STA, pre-incubation 5 min
  log of percentage of control activity, Figure 3A, Mean: 4.1658
[2]; 1 μM STA, pre-incubation 10 min
  log of percentage of control activity, Figure 3A, Mean: 4.0515
[2]; 1 μM STA, pre-incubation 20 min
  log of percentage of control activity, Figure 3A, Mean: 3.8785
[2]; 1 μM STA, pre-incubation 30 min
  log of percentage of control activity, Figure 3A, Mean: 3.5554
[2]; 2 μM STA, pre-incubation 0 min
  log of percentage of control activity, Figure 3A, Mean: 4.6052
[2]; 2 μM STA, pre-incubation 5 min
  log of percentage of control activity, Figure 3A, Mean: 4.0322
[2]; 2 μM STA, pre-incubation 10 min
  log of percentage of control activity, Figure 3A, Mean: 3.5615
[2]; 2 μM STA, pre-incubation 20 min
  log of percentage of control activity, Figure 3A, Mean: 3.1694
[2]; 2 μM STA, pre-incubation 30 min
  log of percentage of control activity, Figure 3A, Mean: 3.0051
[2]; CYP3A4
  kinact/KI: 748.3 M⁻¹ s⁻¹
[2]; CYP3A4, testosterone-6β-hydroxylation
  KI: 2.45 µM
[2]; human, CYP3A5*3/*3 human liver microsomes, probe testosterone (200 μM), CYP3A4, testosterone-6β-hydroxylation
  kinact: 0.00183 s⁻¹
[3]
  TDI profile on CYP3A5 (in words): not observed
[4]
  logP: 1.7
[5]
  microsomal CLint: 24 µL/min/mg
[6]; erythromycin N-demethylation, read-out: inhibitor concentration causing half-maximal inactivation (KI)
  KI (inactivation): 0.399 µM
[6]; erythromycin probe substrate
  kinact/KI: 3843 M⁻¹ s⁻¹
[6]; reversible inhibition of CYP3A, the substrate is erythromycin, read-out: inhibitory constant (Ki)
  pKi: 7.31
[7]; ref supplement 2
  fu plasma: 0.083
[8]; ref supplement 3
  Papp,caco-2: 34.41 ×10⁻⁶ cm/s
[9]
  pKi: 6.82
[9]; [19]
  Dixon plot data point, Figure 2A, Mean: 17.0000
[9]; [20]
  Dixon plot data point, Figure 2A, Mean: 9.0441
[9]; [21]
  Dixon plot data point, Figure 2A, Mean: 7.1353
[9]; [22]
  Dixon plot data point, Figure 2A, Mean: 2.6233
[9]; 0.25 μM STA, 0.2 μM tacrolimus
  Dixon plot data point, Figure 2A, Mean: 21.0000
[9]; 0.25 μM STA, 0.4 μM tacrolimus
  Dixon plot data point, Figure 2A, Mean: 14.8861
[9]; 0.25 μM STA, 0.8 μM tacrolimus
  Dixon plot data point, Figure 2A, Mean: 8.3071
[9]; 0.25 μM STA, 1.6 μM tacrolimus
  Dixon plot data point, Figure 2A, Mean: 3.9072
[9]; 0.5 μM STA, 0.2 μM tacrolimus
  Dixon plot data point, Figure 2A, Mean: 35.0000
[9]; 0.5 μM STA, 0.4 μM tacrolimus
  Dixon plot data point, Figure 2A, Mean: 23.9051
[9]; 0.5 μM STA, 0.8 μM tacrolimus
  Dixon plot data point, Figure 2A, Mean: 13.9244
[9]; 0.5 μM STA, 1.6 μM tacrolimus
  Dixon plot data point, Figure 2A, Mean: 5.0160
[9]; CYP3A5*3/*3 HLM, substrate tacrolimus
  reversible inhibition on CYP3A4 (in words): competitive reversible inhibition
[10]
  pKi: 6.96
[10]; [19]
  Dixon plot data point, Figure 2B, Mean: 15.0000
[10]; [20]
  Dixon plot data point, Figure 2B, Mean: 14.0109
[10]; [21]
  Dixon plot data point, Figure 2B, Mean: 7.5773
[10]; [22]
  Dixon plot data point, Figure 2B, Mean: 5.6992
[10]; 0.25 μM STA, 0.2 μM tacrolimus
  Dixon plot data point, Figure 2B, Mean: 23.2012
[10]; 0.25 μM STA, 0.4 μM tacrolimus
  Dixon plot data point, Figure 2B, Mean: 15.6487
[10]; 0.25 μM STA, 0.8 μM tacrolimus
  Dixon plot data point, Figure 2B, Mean: 12.0521
[10]; 0.25 μM STA, 1.6 μM tacrolimus
  Dixon plot data point, Figure 2B, Mean: 5.8700
[10]; 0.5 μM STA, 0.2 μM tacrolimus
  Dixon plot data point, Figure 2B, Mean: 30.8928
[10]; 0.5 μM STA, 0.4 μM tacrolimus
  Dixon plot data point, Figure 2B, Mean: 26.2841
[10]; 0.5 μM STA, 0.8 μM tacrolimus
  Dixon plot data point, Figure 2B, Mean: 14.9975
[10]; 0.5 μM STA, 1.6 μM tacrolimus
  Dixon plot data point, Figure 2B, Mean: 8.0120
[10]; CYP3A5*1/*3 HLM with CYP3cide, substrate tacrolimus
  reversible inhibition on CYP3A5 (in words): competitive reversible inhibition

## CC(=O)N1CCN(c2ccc(OCC3COC(Cn4ccnc4)(c4ccc(Cl)cc4Cl)O3)cc2)CC1 (stereo not drawn) [ketoconazole]
[11]
  inhibition (tacrolimus level), CYP3A5 non-expressers versus expressers: more significant inhibition

## Cc1ncc2n1-c1ccc(Cl)cc1C(c1ccccc1F)=NC2 [midazolam]
[8]
  Papp,caco-2,(pH 7.4:7.4): 32.4 ×10-6cm/s

## C=CC[C@@H]1/C=C(\C)C[C@H](C)C[C@H](OC)[C@H]2O[C@@](O)(C(=O)C(=O)N3CCCC[C@H]3C(=O)O[C@H](/C(C)=C/[C@@H]3CC[C@@H](O)[C@H](OC)C3)[C@H](C)[C@@H](O)CC1=O)[C@H](C)C[C@@H]2OC [tacrolimus]
[12]; [23]
  AUC Obs (Observed): 19.34 ng·h/mL
  Cmax Obs (Observed): 3.88 ng/mL
  Tmax Obs (Observed): 1.75 h
[12]; [24]
  AUC Obs (Observed): 30.34 ng·h/mL
  Cmax Obs (Observed): 5.52 ng/mL
  Tmax Obs (Observed): 1.5 h
[12]; [25]
  AUC Obs (Observed): 60.83 ng·h/mL
  Cmax Obs (Observed): 14.09 ng/mL
  Tmax Obs (Observed): 1.26 h
[12]; [26]
  AUC Obs (Observed): 119.02 ng·h/mL
  Cmax Obs (Observed): 24.28 ng/mL
  Tmax Obs (Observed): 1.35 h
[12]; [27]
  AUC Obs (Observed): 90.40 ng·h/mL
  Cmax Obs (Observed): 20.8 ng/mL
  Tmax Obs (Observed): 1.40 h
[12]; [28]
  AUC Obs (Observed): 134.77 ng·h/mL
  Cmax Obs (Observed): 27.90 ng/mL
  Tmax Obs (Observed): 1.30 h
[13]; 12-hydroxy tacrolimus formation
  CYP3A4 12-HT Vmax: 0.6 pmol/min/pmol
[13]; 13-O-desmethyl tacrolimus formation
  CYP3A4 13-DMT Vmax: 8 pmol/min/pmol
[13]; read-out: CYP3A4 12-HT Km,u
  Km: 0.29 µM
[13]; read-out: CYP3A4 13-DMT Km,u
  Km: 0.21 µM
[14]; 12-hydroxy tacrolimus formation, ref 3 (supplement ref 8)
  CYP3A5 12-HT Vmax: 1.4 pmol/min/pmol
[14]; 13-O-desmethyl tacrolimus formation, ref 3 (supplement ref 8)
  CYP3A5 13-DMT Vmax: 17 pmol/min/pmol
[14]; in vitro
  intrinsic clearance of tacrolimus by CYP3A5 versus CYP3A4: more than two-fold faster
[14]; ref 3 (supplement ref 8), read-out: CYP3A5 12-HT Km,u
  Km: 0.35 µM
[14]; ref 3 (supplement ref 8), read-out: CYP3A5 13-DMT Km,u
  Km: 0.21 µM
[15]
  LogPo:w: 3.26
[16]
  Intrinsic solubility: 12 µg/mL
[7]; ref supplement 4
  fu plasma: 0.013
[17]
  B/P: 35
[18]
  fu gut: 1
[8]
  Papp,caco-2,(pH 7.4:7.4): 13.1 ×10-6cm/s
